According to US11040937B2, “Amide derivative” (TOHOKU UNIVERSITY, priority 2014, dated 2021):
Read-outs that look alike come from different tables or passages of the source.

Legend:
A549/OPNluc cells = assay: WST assay for cell growth / cell viability; assay type: cell-based, human; conditions: Homo sapiens, A549, A549/OPNluc cells, 48±4 hours, WST-1; read-out: IC50 (concentration for 50% inhibition of cell growth)
Source text: (§1) A reporter vector pOPN1-luc obtained by the insertion of a human OPN promoter sequence (−765 to 23) into the multiple cloning site of pGL-3 basic vector (Promega) expresses luciferase when transfected into animal cells. The pOPN1-luc was transfected into a human non-small cell lung cancer-derived cell line A549 together with pPUR (Clontech) that expresses a puromycin resistance gene (puromycin-N-acetyl-transferase gene), and then cells expressing luciferase which could grow a puromycin-supplemented medium were selected. The selected cells were named “A549/OPNluc cells” and used for observation of luciferase expression inhibitory effect under control of OPN promoter, as described below.
(§2) A test compound was added to a culture containing A549/OPNluc cells to observe its influence on the amount of luciferase expressed in the cells. Here, it can be considered that when the test compound has a cell cytotoxity or cell growth inhibitory effect, the total expression level of luciferase is reduced due to a reduction in the number of living cells that depends on the concentration of the test compound, and therefore the luciferase expression inhibitory effect of the test compound under control of OPN promoter cannot be properly evaluated. For this reason, WST assay for quantification of cell proliferation ability or cell viability by colorimetric measurement was firstly performed to determine IC50 (concentration for 50% inhibition of cell growth) of the test compound for cell growth. Then, luciferase activity measurement was performed to determine EC50 (concentration for 50% inhibition of luciferase expression) of the test compound for luciferase expression under control of OPN promoter.
A549/OPNluc cells were suspended in DMEM medium containing 10% fetal calf serum (FCS) and 1% penicillin/streptomycin (P/S) at 3×10^4 cells/mL to obtain a cell suspension, and then the cell suspension was dispensed into each well of a 96-well plate in an amount of 100 μL. In order to perform the assay in triplicate, wells were prepared for a control group, and 3 wells were prepared for each test compound-treated group at each concentration. After the dispensation, the 96-well plate was incubated in a CO2 incubator (at 37° C. and 5% CO2) for 24±4 hours.
The present compound was dissolved in dimethylsulfoxide (DMSO) to obtain a 50 mmol/L solution, and the compound solution was stored at −80° C. The compound solution was diluted with DMSO in 2-fold dilution series (usually, in the range of 0.31 mmol/L to 20 mmol/L) to prepare test compound solutions whose concentration varied by two fold for WST assay.
Each solution of only DMSO (control) and the diluted test compound (sample) was dispensed into each well containing the cell suspension in an amount of 0.5 μL (200-fold dilution). The solution in each well was mixed with a vortex mixer, and then the 96-well plate was incubated in a CO2 incubator (at 37° C. and 5% CO2) for 48±4 hours. Then, Premix WST-1 Reagent (TAKARA BIO INC.) was added in an amount of 10 μL to each well. The solution in each well was mixed with a vortex mixer, and then the 96-well plate was incubated at 37° C. and 5% CO2. After 60 minutes or 120 minutes, the absorbance values (450 nm) were measured with a microplate reader (Bio-Rad; Benchmark or Thermo Scientific; Varioskan Flash).
The absorbance values of the control wells and the sample wells at each concentration were input into an Excel file to determine the percentages of absorbance values of the sample wells at each concentration with to the average absorbance value of the control wells. From the determined values, a fitted curve was determined by the method of least squares to calculate IC50.

[1] = test system: human OPN promoter (pOPN1-luc) in A549/OPNluc cells; assay: Luciferase assay: luciferase expression under control of OPN promoter; assay type: cell-based; conditions: Homo sapiens
Source text: as §1, §2
The same steps as in the above-mentioned WST assay were performed in which each solution of only DMSO (control) or the diluted test compound (sample) was added in an amount of 0.5 μL to each well containing the cell suspension to achieve 200-fold dilution, and the solution in each well was mixed with a vortex mixer, and the 96-well plate was incubated in a CO2 incubator (at 37° C. and 5% CO2) for 48±4 hours.
Luciferase Assay Substrate (hereinafter referred to as “LAS”) supplied in Luciferase Assay Systems (Promega: Cat #E1500) was dissolved in Luciferase Assay Buffer (LAB) to prepare a luciferase reagent. 5×Cell Culture Lysis Reagent (hereinafter referred to as “CCLR”) was diluted by 5 times with water to prepare 1×CCLR.
After the incubation for 48±4 hours, the medium in each well was completely removed, and 1×CCLR was dispensed into each well in an amount of 50 μL. The 96-well plate was allowed to stand at room temperature for 30 minutes, and then 1×CCLR in each well was used as an assay sample. The luciferase reagent (100 μL) was placed in a tube for chemiluminescence measurement, and the assay sample (20 μL) was added to the tube and mixed with the luciferase reagent to measure chemiluminescence (Relative Luminescence Intensity: RLU) using TB 20/20 (Promega) or GloMax 20/20 (Promega).
The RLU values of the control wells and the sample wells at each concentration were input into an Excel file, and the percentages of RLU values of the sample wells at each concentration to the average RLU value of the control wells were determined. From these values, a fitted curve was determined by the method of least squares to calculate EC50. Also, the percentages of RLU values of the sample wells at each concentration to the average RLU value of the control wells were divided by the percentages of absorbance values of the compounds in WST assay at the same concentrations as those of this assay (to the control), and a fitted curve was determined from the calculated values by the method of least squares to calculate corrected EC50.

[2] = A549, A549/OPNluc cells, 48±4 hours, read-out: EC50 (concentration for 50% inhibition of luciferase expression)
[3] = A549, EC50 corrected for decrease in viable cells (RLU % divided by WST %), read-out: corrected EC50

Row | Structure (SMILES) | IC50 (A549/OPNluc cells) [µM] | EC50 [1, 2] [µM] | EC50 [1, 3] [µM]
1 | COc1ccc(Oc2cccc(C(=O)CCNC(=O)c3ccc(O)cc3)c2N)cc1 [Compound 6, N-(3-(2-Amino-3-(4-methoxyphenoxy)phenyl)-3-oxopropyl)-4-hydroxybenzamide] | 66 | 8.9 | 10.2
2 | O=C(CCNC(=O)c1ccc(O)cc1)Nc1cccc(Oc2ccc(Cl)c(Cl)c2)c1 [Compound 38, N-(3-(3-(3,4-dichlorophenoxy)phenylamino)-3-oxopropyl)-4-hydroxybenzamide] | 17.3 | 4.6 | 7.5
3 | Nc1ccc(C(=O)NCCC(=O)c2cccc(Oc3ccc(Cl)cc3)c2N)cc1 [Compound 19, N-(3-(2-Amino-3-(4-chlorophenoxy)phenyl)-3-oxopropyl)-4-aminobenzamide] | > 100 | 6.8 | 7.8
4 | COc1ccc(Oc2cccc(NC(=O)CCNC(=O)c3ccc(O)cc3)c2)cc1 [Compound 26, N-(3-(3-(4-Methoxyphenoxy)phenylamino)-3-oxopropyl)-4-hydroxybenzamide] | 86.2 | 20.3 | 27.1
